Patent publication US20080153896A1, “Polymorphic Forms of an HMG-CoA Reductase Inhibitor and Uses Thereof” (priority 2006, published 2008)

Tests used:
[1] = Intrinsic clearance in human liver microsomes; settings: vs atorvastatin
[2] = test system: NRK-49F (Fibroblast) and L6 (Myoblast); assay: Inhibition of cholesterol synthesis in extra hepatic cells/cell lines
[3] = molecular target: T1, 3-hydroxy-3-methylglutaryl-coenzyme A (HMG-CoA) reductase (Homo sapiens, UniProt P04035); assay: HMG-CoA reductase inhibition, potency compared with atorvastatin; assay type: biochemical; settings: vs atorvastatin
T1 sequence (P04035 1-888): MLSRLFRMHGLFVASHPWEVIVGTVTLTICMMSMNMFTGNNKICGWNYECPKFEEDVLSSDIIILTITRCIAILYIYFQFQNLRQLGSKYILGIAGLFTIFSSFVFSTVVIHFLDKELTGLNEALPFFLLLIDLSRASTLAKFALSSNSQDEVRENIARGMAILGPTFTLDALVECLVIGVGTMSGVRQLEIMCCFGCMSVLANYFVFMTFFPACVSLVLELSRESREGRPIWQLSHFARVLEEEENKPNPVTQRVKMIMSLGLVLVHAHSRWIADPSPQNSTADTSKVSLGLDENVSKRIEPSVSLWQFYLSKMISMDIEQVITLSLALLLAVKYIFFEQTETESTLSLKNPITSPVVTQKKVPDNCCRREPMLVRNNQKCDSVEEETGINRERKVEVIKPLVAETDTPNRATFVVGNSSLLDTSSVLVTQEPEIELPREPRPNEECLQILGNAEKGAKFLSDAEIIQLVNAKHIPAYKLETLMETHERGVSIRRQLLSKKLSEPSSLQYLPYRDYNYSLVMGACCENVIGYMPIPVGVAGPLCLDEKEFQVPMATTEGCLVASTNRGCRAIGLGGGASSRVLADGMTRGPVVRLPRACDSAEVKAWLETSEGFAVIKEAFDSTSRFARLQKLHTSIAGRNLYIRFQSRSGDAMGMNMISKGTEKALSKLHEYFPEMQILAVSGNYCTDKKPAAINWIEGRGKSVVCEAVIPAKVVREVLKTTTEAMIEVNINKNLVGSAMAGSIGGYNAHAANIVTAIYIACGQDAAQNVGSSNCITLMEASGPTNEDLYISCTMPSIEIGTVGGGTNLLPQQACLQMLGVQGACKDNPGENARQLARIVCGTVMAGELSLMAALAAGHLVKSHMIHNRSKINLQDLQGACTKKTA

cholesterol synthesis = assay: Inhibition of cholesterol synthesis in an in vivo rat model; settings: vs atorvastatin
[4] = molecular target: CYP3A4 (cytochrome P450 3A4) (Homo sapiens, UniProt P08684); assay: Substrate for metabolic enzyme CYP3A4
rat primary hepatocytes = assay: Inhibition of cholesterol synthesis in rat primary hepatocytes; assay type: cell-based; settings: vs atorvastatin

CYP3A4 (cytochrome P450 3A4), sequence (P08684 whole entry): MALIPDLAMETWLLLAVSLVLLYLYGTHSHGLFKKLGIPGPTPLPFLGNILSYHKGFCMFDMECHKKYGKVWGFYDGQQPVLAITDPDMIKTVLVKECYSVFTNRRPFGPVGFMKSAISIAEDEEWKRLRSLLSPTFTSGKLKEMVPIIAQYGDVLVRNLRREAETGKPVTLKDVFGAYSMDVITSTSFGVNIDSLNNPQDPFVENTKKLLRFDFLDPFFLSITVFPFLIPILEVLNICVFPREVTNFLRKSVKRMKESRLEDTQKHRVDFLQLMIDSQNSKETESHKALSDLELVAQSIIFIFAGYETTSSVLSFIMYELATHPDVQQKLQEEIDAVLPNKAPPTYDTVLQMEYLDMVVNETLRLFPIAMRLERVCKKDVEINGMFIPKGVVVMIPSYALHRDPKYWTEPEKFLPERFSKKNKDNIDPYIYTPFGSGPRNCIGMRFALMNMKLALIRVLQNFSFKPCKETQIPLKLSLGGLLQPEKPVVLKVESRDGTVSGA

In the case of “(3R,5R)-7-[2-(4-fluorophenyl)-5-isopropyl-3-phenyl-4-[(4-hydroxymethylphenylamino)carbonyl]-pyrrol-1-yl]-3,5-dihydroxy-heptanoic acid hemi calcium salt [compound of Formula I]”, the intrinsic clearance [1] is reported as “significantly less than atorvastatin”, the “selectivity, inhibition of cholesterol synthesis in rat primary hepatocytes over extra hepatic cells/cell lines” value ([2]; NRK-49F and L6, vs atorvastatin) is reported as “greater” and the hepatoselectivity ([2]; vs atorvastatin) is reported as “better hepatoselectivity”. For the same substance, the “potency relative to atorvastatin” value [3] was “equipotent to atorvastatin”, the “potency in inhibiting cholesterol synthesis” value (cholesterol synthesis) was “more potent than atorvastatin” and the “substrate for the metabolic enzyme CYP3A4” value [4] was “not a major substrate”. For the same substance, the “potency in the inhibition of cholesterol synthesis” value (rat primary hepatocytes) was “greater potency”.
